Source: patent US20130237493A1, “COMBINATION THERAPY OF 4-(CYCLOPROPYLAMINO)-2-(4-(4-(ETHYLSULFONYL)PIPERAZIN-1-YL)PHENYLAMINO)PYRIMIDINE-5-CARBOXAMIDE AND FLUDARABINE” (Portola Pharmaceuticals, Inc., priority 2010, published 2013)

Test system: primary CLL cells
Test: tetrazolium-based (MTS) cell viability assay on fresh primary CLL cells
Set-up: species or system human
Details: 10 nM to 10 μM, 3 days
Source text: The viability data were normalized to untreated controls and were used to calculate IC50 values.

Compound: CCS(=O)(=O)N1CCN(c2ccc(Nc3ncc(C(N)=O)c(NC4CC4)n3)cc2)CC1 [Compound 2, 4-(cyclopropylamino)-2-(4-(4-(ethylsulfonyl)piperazin-1-yl)phenylamino)pyrimidine-5-carboxamide]
- single agent activity in CLL: single agent activity
